Where “and” joins values, the source holds several entries; their conditions need not be identical. Equal entries are not always repeated. Toxic doses and inconclusive results are not listed. The calls were made as follows: active = survival T/C of 150% or more; inactive = T/C below 125% in these data.
Test system: P388 leukemia ip, CD2F1 mice, survival T/C
Test: NCI In Vivo Anticancer Drug Screen. Data for tumor model P388 Leukemia (intraperitoneal) in CD2F1 (CDF1) mice
Details: endpoint: median survival time, higher = longer survival
In short: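 Mice carrying the transplanted tumor received test compound or vehicle. Survival was recorded in each group, and the value is the treated-group measurement divided by that of the vehicle-treated control group.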

[1] = dose: 50.0 mg/kg/injection, schedule: Q01DX009 (ip), vehicle: saline with Tween-80
[2] = dose: 100.0 mg/kg/injection, schedule: Q01DX009 (ip), vehicle: saline with Tween-80
[3] = dose: 200.0 mg/kg/injection, schedule: Q01DX009 (ip), vehicle: saline with Tween-80
[4] = dose: 12.5 mg/kg/injection, schedule: Q01DX009 (ip), vehicle: other
[5] = dose: 25.0 mg/kg/injection, schedule: Q01DX009 (ip), vehicle: other
[6] = dose: 50.0 mg/kg/injection, schedule: Q01DX009 (ip), vehicle: other
[7] = dose: 100.0 mg/kg/injection, schedule: Q01DX009 (ip), vehicle: other
[8] = dose: 25.0 mg/kg/injection, schedule: Q01DX005 (ip), vehicle: saline with Tween-80
[9] = dose: 50.0 mg/kg/injection, schedule: Q01DX005 (ip), vehicle: saline with Tween-80
[10] = dose: 100.0 mg/kg/injection, schedule: Q01DX005 (ip), vehicle: saline with Tween-80
[11] = dose: 200.0 mg/kg/injection, schedule: Q01DX005 (ip), vehicle: saline with Tween-80
[12] = dose: 100.0 mg/kg/injection, schedule: Q01DX001 (ip), vehicle: Klucel (hydroxypropylcellulose) (HPC)
[13] = dose: 200.0 mg/kg/injection, schedule: Q01DX001 (ip), vehicle: Klucel (hydroxypropylcellulose) (HPC)
[14] = dose: 60.0 mg/kg/injection, schedule: Q01DX005 (ip), vehicle: saline with Tween-80
[15] = dose: 120.0 mg/kg/injection, schedule: Q01DX005 (ip), vehicle: saline with Tween-80
[16] = dose: 25.0 mg/kg/injection, schedule: Q01DX009 (ip), vehicle: saline with Tween-80
[17] = dose: 60.0 mg/kg/injection, schedule: Q01DX005 (ip), vehicle: Klucel (hydroxypropylcellulose) (HPC)
[18] = dose: 120.0 mg/kg/injection, schedule: Q01DX005 (ip), vehicle: Klucel (hydroxypropylcellulose) (HPC)
[19] = dose: 240.0 mg/kg/injection, schedule: Q01DX005 (ip), vehicle: Klucel (hydroxypropylcellulose) (HPC)

Measured: T/C

CCCCCCCCCC(C)CC(=O)NCCCN(C)CCCCN(C)C (centres undefined)
inactive: dose: 0.78 mg/kg/injection, schedule: Q01DX009 (ip), vehicle: Klucel (hydroxypropylcellulose) (HPC) 107 % of control | dose: 1.56 mg/kg/injection, schedule: Q01DX009 (ip), vehicle: Klucel (hydroxypropylcellulose) (HPC) 105 % of control | dose: 3.13 mg/kg/injection, schedule: Q01DX009 (ip), vehicle: Klucel (hydroxypropylcellulose) (HPC) 112 % of control | dose: 6.25 mg/kg/injection, schedule: Q01DX009 (ip), vehicle: Klucel (hydroxypropylcellulose) (HPC) 87 % of control

COc1ccc(/C=N/N(C)C(=O)Nc2cccc(Cl)c2)cc1OC
inactive: [1] 98 % of control | [2] 98 % of control | [3] 105 % of control

Brc1ccc(Nc2ccccn2)cc1
inactive: [4] 108 % of control | [5] 97 % of control | [6] 105 % of control | [7] 105 % of control | dose: 200.0 mg/kg/injection, schedule: Q01DX009 (ip), vehicle: other 106 % of control

Cc1cc2c(cc1C)C(=O)C(Br)=C(N)C2=O
inactive: [8] 94 % of control | [9] 100 % of control and 91 % of control | [10] 87 % of control | [11] 92 % of control

Cc1cc(=O)n2c(nc3cc(C(=O)c4ccccc4)ccc32)s1
inactive: dose: 50.0 mg/kg/injection, schedule: Q01DX001 (ip), vehicle: Klucel (hydroxypropylcellulose) (HPC) 101 % of control | [12] 98 % of control | [13] 100 % of control

CC(=O)Sc1ccccc1C(=O)NC1CCCCC1
inactive: [1] 114 % of control | [2] 117 % of control | [3] 114 % of control

CC/C([O-])=C1/C(=O)N(c2ccccc2)N=C1C.CC/C([O-])=C1/C(=O)N(c2ccccc2)N=C1C.[Cu+2]
inactive: dose: 15.0 mg/kg/injection, schedule: Q01DX005 (ip), vehicle: saline with Tween-80 100 % of control | dose: 30.0 mg/kg/injection, schedule: Q01DX005 (ip), vehicle: saline with Tween-80 107 % of control | [14] 91 % of control and 94 % of control | [15] 100 % of control

Cc1ccc(C(=O)Cc2ccc(C#N)cc2)cc1
inactive: [16] 99 % of control | [1] 118 % of control | [2] 108 % of control | [3] 99 % of control

COc1ccnc(-c2cc(OC)cc(/C(N)=N/O)n2)c1
inactive: [14] 100 % of control | [15] 105 % of control | dose: 240.0 mg/kg/injection, schedule: Q01DX005 (ip), vehicle: saline with Tween-80 100 % of control

CCN1c2ccccc2SC1CC1=C(O)C(CC2Sc3ccccc3N2CC)=C1O (centres undefined)
inactive: [17] 91 % of control | [18] 96 % of control | [19] 89 % of control

CCC(=O)O[C@H]1CC[C@H]2[C@@H]3C[C@H](F)C4=CC(=O)CC[C@]4(C)[C@H]3CC[C@]12C
inactive: [1] 100 % of control | [2] 100 % of control | [3] 100 % of control

O=C1Nc2ccccc2/C1=N/N=C/c1ccco1
inactive: dose: 50.0 mg/kg/injection, schedule: Q01DX009 (ip), vehicle: Klucel (hydroxypropylcellulose) (HPC) 96 % of control | dose: 100.0 mg/kg/injection, schedule: Q01DX009 (ip), vehicle: Klucel (hydroxypropylcellulose) (HPC) 87 % of control | dose: 200.0 mg/kg/injection, schedule: Q01DX009 (ip), vehicle: Klucel (hydroxypropylcellulose) (HPC) 88 % of control

Clc1cccnc1Cl
inactive: dose: 50.0 mg/kg/injection, schedule: Q01DX009 (ip), vehicle: saline 100 % of control and 110 % of control | dose: 100.0 mg/kg/injection, schedule: Q01DX009 (ip), vehicle: saline 103 % of control and 105 % of control | dose: 200.0 mg/kg/injection, schedule: Q01DX009 (ip), vehicle: saline 99 % of control and 106 % of control | dose: 400.0 mg/kg/injection, schedule: Q01DX009 (ip), vehicle: saline 97 % of control

O=C(C[N+](=O)[O-])OCc1ccccc1
inactive: [4] 101 % of control | [5] 106 % of control | [6] 113 % of control | [7] 103 % of control

CN1CCN=C1c1ccc(NC(=O)c2ccc(C(=O)Nc3ccc(C4=NCCN4C)cc3)c(Cl)c2)cc1
inactive: dose: 1.56 mg/kg/injection, schedule: Q01DX005 (ip), vehicle: Klucel (hydroxypropylcellulose) (HPC) 104 % of control | dose: 3.12 mg/kg/injection, schedule: Q01DX005 (ip), vehicle: Klucel (hydroxypropylcellulose) (HPC) 109 % of control | dose: 6.25 mg/kg/injection, schedule: Q01DX005 (ip), vehicle: Klucel (hydroxypropylcellulose) (HPC) 118 % of control and 123 % of control

Cc1noc(/C=C\c2ccccc2O)c1[N+](=O)[O-]
inactive: [9] 92 % of control | [10] 99 % of control | [11] 97 % of control

C/C=C1\CNC2Cc3c([nH]c4ccccc34)C(c3c(OC)ccc4c5c([nH]c34)C3(C(=O)OC)CC4CC(CC)C3N(CC5)C4)CC1C2C(=O)OC (centres undefined)
inactive: dose: 1.56 mg/kg/injection, schedule: Q01DX009 (ip), vehicle: saline with Tween-80 93 % of control | dose: 3.12 mg/kg/injection, schedule: Q01DX009 (ip), vehicle: saline with Tween-80 90 % of control | dose: 12.5 mg/kg/injection, schedule: Q01DX009 (ip), vehicle: saline with Tween-80 93 % of control | [16] 90 % of control

Cc1ccc2nc(N(C)C)nc-2c2[nH]c(=O)[nH]c12
inactive: dose: 8.25 mg/kg/injection, schedule: Q01DX005 (ip), vehicle: saline 110 % of control | dose: 16.5 mg/kg/injection, schedule: Q01DX005 (ip), vehicle: saline 110 % of control | dose: 33.0 mg/kg/injection, schedule: Q01DX005 (ip), vehicle: saline 107 % of control | dose: 66.0 mg/kg/injection, schedule: Q01DX005 (ip), vehicle: saline 102 % of control

O=C1OCCOCCOCCOCCOC(=O)c2cncc1c2
inactive: [12] 101 % of control | [13] 108 % of control | dose: 400.0 mg/kg/injection, schedule: Q01DX001 (ip), vehicle: Klucel (hydroxypropylcellulose) (HPC) 105 % of control

O=C1C2=C(Nc3ccccc3N2)OC1c1ccc(C2OC3=C(Nc4ccccc4N3)C2=O)cc1 (centres undefined)
inactive: [17] 88 % of control | [18] 88 % of control | [19] 87 % of control

Cc1cc(C)nc(NS(=O)(=O)c2ccc(NC(=O)C(Cl)(Cl)Cl)cc2)n1
inactive: dose: 6.25 mg/kg/injection, schedule: Q01DX005 (ip), vehicle: saline with Tween-80 104 % of control | dose: 12.5 mg/kg/injection, schedule: Q01DX005 (ip), vehicle: saline with Tween-80 101 % of control | [8] 94 % of control

C/C(=N\NC(=S)N1CCCCCC1)c1nccnc1C
inactive: dose: 25.0 mg/kg/injection, schedule: Q01DX005 (ip), vehicle: Klucel (hydroxypropylcellulose) (HPC) 112 % of control | dose: 50.0 mg/kg/injection, schedule: Q01DX005 (ip), vehicle: Klucel (hydroxypropylcellulose) (HPC) 122 % of control

O=C(O)CC(NC(=O)OCc1ccccc1)C(=O)OCc1ccccc1 (centres undefined)
inactive: [1] 100 % of control | [2] 104 % of control | [3] 104 % of control

CN=C(N)N/N=C(\c1ccccc1)c1cc(Cl)c(O)c(Cl)c1
inactive: dose: 25.0 mg/kg/injection, schedule: Q04DX002 (ip), vehicle: saline with Tween-80 101 % of control | dose: 50.0 mg/kg/injection, schedule: Q04DX002 (ip), vehicle: saline with Tween-80 100 % of control | dose: 100.0 mg/kg/injection, schedule: Q04DX002 (ip), vehicle: saline with Tween-80 100 % of control | dose: 200.0 mg/kg/injection, schedule: Q04DX002 (ip), vehicle: saline with Tween-80 104 % of control | dose: 400.0 mg/kg/injection, schedule: Q04DX002 (ip), vehicle: saline with Tween-80 103 % of control

COC1=C(C2=C(OC)C(=O)c3cc4c(c(O)c3C2=O)C(=O)OC(C)C4)C(=O)c2c(cc3c(c2O)C(=O)OC(C)C3)C1=O (centres undefined)
inactive: dose: 6.25 mg/kg/injection, schedule: Q01DX009 (ip), vehicle: saline 100 % of control | dose: 12.5 mg/kg/injection, schedule: Q01DX009 (ip), vehicle: saline 98 % of control | dose: 25.0 mg/kg/injection, schedule: Q01DX009 (ip), vehicle: saline 103 % of control

CC(=O)N1CN2CN(C1)CN(C(C)=O)C2
inactive: dose: 100.0 mg/kg/injection, schedule: Q01DX001 (ip), vehicle: saline 105 % of control | dose: 200.0 mg/kg/injection, schedule: Q01DX001 (ip), vehicle: saline 104 % of control | dose: 400.0 mg/kg/injection, schedule: Q01DX001 (ip), vehicle: saline 107 % of control

Reference: PubChem BioAssay AID330 (DTP/NCI, 2004)
